The values below come from ChEMBL document CHEMBL3616377, “2-(3'-Indolyl)-N-arylthiazole-4-carboxamides: Synthesis and evaluation of antibacterial and anticancer activities” (Bioorg Med Chem Lett, 2015).

pIC50: −log10 of the molar value. Values after ≈ are worked out from the molar mass of the structure shown. Active and inactive are the calls of the source. The calls are words filed in the database; no cut-off is given here.

The subject of data set [1] is Pseudomonas putida. Nature of the data set: Antibacterial activity against Pseudomonas putida MTCC 102 after 18 to 24 hrs by broth microdilution method. Format: functional. In general terms: Dilution methods test growth across graded concentrations, often in twofold steps.
Data set [2] concerns Bacillus subtilis. Put plainly: Antibacterial activity against Bacillus subtilis MTCC 121 after 18 to 24 hrs by agar well diffusion method. Format: functional. Background: A growth-free zone around the sample is the usual read-out of agar diffusion tests.
Data set [3] can be described thus: Solubility of the compound in 0.05 to 0.1% DMSO. It is filed as physicochemical.
Data set [4] relates to Escherichia coli. Nature of the data set: Bactericidal activity against Escherichia coli MTCC 1652 assessed as reduction of number of bacterial cells at 4 times MIC after 2 to 3 hrs. Format: functional, organism-based.
The test system of data set [5] is Escherichia coli. Put plainly: Antibacterial activity against Escherichia coli MTCC 1652 after 18 to 24 hrs by broth microdilution method. It is filed as functional.
Data set [6] relates to Escherichia coli. Put plainly: Antibacterial activity against Escherichia coli MTCC 1652 after 18 to 24 hrs by agar well diffusion method. Format: functional.
In data set [7] the test system is Bacillus subtilis. Put plainly: Antibacterial activity against Bacillus subtilis MTCC 121 after 18 to 24 hrs by broth microdilution method. Format: functional.
The subject of data set [8] is Pseudomonas putida. Nature of the data set: Antibacterial activity against Pseudomonas putida MTCC 102 after 18 to 24 hrs by agar well diffusion method. It is filed as functional.
Data set [9] has as its system Pseudomonas putida. Nature of the data set: Bactericidal activity against Pseudomonas putida MTCC 102 assessed as reduction of number of bacterial cells at 4 times MIC after 2 to 3 hrs. Format: functional, organism-based.
Data set [10] concerns Staphylococcus aureus. Put plainly: Antibacterial activity against Staphylococcus aureus MTCC 96 after 18 to 24 hrs by broth microdilution method. It is filed as functional.
For data set [11], the system named is Pseudomonas putida. Nature of the data set: Bactericidal activity against Pseudomonas putida MTCC 102 assessed as reduction of number of bacterial cells at 4 times MIC after 1 to 6 hrs. It is filed as functional, organism-based.
Data set [12] relates to Staphylococcus aureus. Put plainly: Antibacterial activity against Staphylococcus aureus MTCC 96 after 18 to 24 hrs by agar well diffusion method. It is filed as functional.
The test system of data set [13] is Escherichia coli. Nature of the data set: Bactericidal activity against Escherichia coli MTCC 1652 assessed as reduction of number of bacterial cells at 4 times MIC after 1 to 6 hrs. Format: functional, organism-based.
In data set [14] the test system is Staphylococcus aureus. Put plainly: Antibacterial activity against methicillin-resistant Staphylococcus aureus. Format: functional.
Data set [15] relates to MDA-MB-231. Put plainly: Cytotoxicity against human MDA-MB-231 cells after 48 hrs by MTT assay in absence of 10% FBS. The conditions noted are these: MDA-MB-231, 48 h. Format: functional, cell-based. (In general: Formazan colour is commonly taken as a measure of viable cells.)
Data set [16] deals with LNCaP. Put plainly: Cytotoxicity against human LNCAP cells after 48 hrs by MTT assay in absence of 10% FBS. Format: functional, cell-based.
Data set [17] relates to PC-3. Nature of the data set: Cytotoxicity against human PC3 cells after 48 hrs by MTT assay in presence of 10% FBS. It is filed as functional, cell-based. Particulars: PC-3, 48 h.
Data set [18] concerns HeLa. Nature of the data set: Induction of apoptosis in human HeLa cells assessed as formation of apoptotic nuclei formation at 10 uM after 24 hrs using propidium iodide staining by fluorescence microscopy analysis. It is filed as functional, cell-based.
In data set [19] the test system is LNCaP. Nature of the data set: Cytotoxicity against human LNCAP cells after 48 hrs by MTT assay in presence of 10% FBS. It is filed as functional, cell-based.
Data set [20] deals with PC-3. Put plainly: Cytotoxicity against human PC3 cells after 48 hrs by MTT assay in absence of 10% FBS. It is filed as functional, cell-based. The conditions noted are these: PC-3, 48 h.
Data set [21] in a line: Cytotoxicity against human castration-resistant C4-2 cells after 48 hrs by MTT assay in presence of 10% FBS. It is filed as functional, cell-based. Particulars: LNCaP C4-2, 48 h.
Data set [22] relates to HEK-293T. Put plainly: Cytotoxicity against human HEK293T cells after 48 hrs by MTT assay in presence of 10% FBS. It is filed as cell-based.
The nature of data set [23]: Cytotoxicity against human castration-resistant C4-2 cells after 48 hrs by MTT assay in absence of 10% FBS. It is filed as functional, cell-based. Particulars: LNCaP C4-2, 48 h.
For data set [24], the system named is HEK-293T. Put plainly: Cytotoxicity against human HEK293T cells after 48 hrs by MTT assay in absence of 10% FBS. Format: cell-based.
In a further data set the test system is HepG2. Put plainly: Cytotoxicity against human HepG2 cells by MTT assay. It is filed as functional, cell-based.
In the next data set the test system is SK-N-MC. Nature of the data set: Cytotoxicity against human SK-N-MC cells by MTT assay. Format: functional, cell-based.
For another data set, the system named is MCF7. Put plainly: Cytotoxicity against human MCF7 cells by MTT assay. Format: functional, cell-based.
Data set [25] deals with HeLa. Put plainly: Cytotoxicity against human HeLa cells after 48 hrs by MTT assay in presence of 10% FBS. It is filed as functional, cell-based.
Data set [26] relates to MDA-MB-231. Nature of the data set: Cytotoxicity against human MDA-MB-231 cells after 48 hrs by MTT assay in presence of 10% FBS. It is filed as functional, cell-based. The conditions noted are these: MDA-MB-231, 48 h.
For data set [27], the system named is HeLa. Put plainly: Cytotoxicity against human HeLa cells after 48 hrs by MTT assay in absence of 10% FBS. It is filed as functional, cell-based.

For the compound `COc1ccc(NC(=O)c2csc(-c3c[nH]c4ccc(Br)cc34)n2)cc1`, the MIC (in general, the lowest concentration found to suppress growth) with Pseudomonas putida [1] is 12.5 µg/mL (≈ 29.2 µM); in the data set with Escherichia coli [5], 12.5 µg/mL (≈ 29.2 µM); against Bacillus subtilis [7], 50 µg/mL (≈ 117 µM); with Staphylococcus aureus [10], 50 µg/mL (≈ 117 µM). The “inhibition zone (IZ)” value with Bacillus subtilis [2] came out at 15 mm; in the data set with Escherichia coli [6], 15 mm; in the data set with Pseudomonas putida [8] it was 16 mm; with Staphylococcus aureus [12], 14 mm. Moreover, the solubility result in [3] is on record as “Insoluble”. Also, the outcome with Escherichia coli [4], in the data set on Pseudomonas putida [9], with Pseudomonas putida [11] and with Escherichia coli [13] was Active.
For the compound `Clc1ccc2ccc(-c3c[nH]c4ccc(Br)cc34)nc2c1`, the MIC against Staphylococcus aureus [14] is less than 1 µg/mL.
Regarding `COc1cccc2c1C(=O)c1c(O)c3c(c(O)c1C2=O)C[C@@](O)(C(=O)CO)C[C@@H]3O[C@H]1C[C@H](N)[C@H](O)[C@H](C)O1` [DOXORUBICIN], the pIC50 – broadly, −log10 of the IC50, conventionally taken in molar units – with MDA-MB-231 [15] was 5.22; in the data set with LNCaP [16] it was 5.19; with PC-3 [17] it was 5.01; in the data set with LNCaP [19], 5.13; in the data set on PC-3 [20] it was 5.12; in data set [21] it was 6.24. For the same compound, the pIC50 was 6.12 with HEK-293T [22], 5.99 in data set [23] and 6.08 in the data set with HEK-293T [24]. Further, the result with HeLa [18] was Active.
Take `COc1ccc(NC(=O)c2csc(-c3c[nH]c4ccccc34)n2)cc1OC`: the MIC against Pseudomonas putida [1] was 25 µg/mL (≈ 65.9 µM); against Escherichia coli [5], 25 µg/mL (≈ 65.9 µM); against Bacillus subtilis [7], 50 µg/mL (≈ 132 µM); in the data set with Staphylococcus aureus [10] it was 50 µg/mL (≈ 132 µM). The “inhibition zone (IZ)” value with Bacillus subtilis [2] is recorded as 14 mm; with Escherichia coli [6], 16 mm; in the data set with Pseudomonas putida [8] it was 16 mm; in the data set with Staphylococcus aureus [12], 14 mm. In [3], the solubility result is “Insoluble”.
As for `O=C(Nc1ccc(F)cc1)c1csc(-c2c[nH]c3ccccc23)n1`, the MIC in the data set with Pseudomonas putida [1], against Escherichia coli [5], in the data set with Bacillus subtilis [7] and against Staphylococcus aureus [10] was 100 µg/mL (≈ 296 µM) each time. Moreover, the “inhibition zone (IZ)” value stood at 10 mm with Bacillus subtilis [2], 13 mm in the data set with Escherichia coli [6], 12 mm with Pseudomonas putida [8] and 12 mm in the data set with Staphylococcus aureus [12]. Moreover, the solubility result in [3] was “Insoluble”.
As for `Cc1ccc(-c2nc(C(=O)Nc3ccccc3)cs2)cc1`, the negative logarithm of the IC50 (pIC50) with HepG2, in the data set on SK-N-MC and with MCF7 was 5.00 throughout.
Turning to `COc1cc(NC(=O)c2csc(-c3c[nH]c4ccccc34)n2)cc(OC)c1OC`, the MIC in the data set with Pseudomonas putida [1] came to 100 µg/mL (≈ 244 µM); with Escherichia coli [5], 50 µg/mL (≈ 122 µM); with Bacillus subtilis [7] it was 50 µg/mL (≈ 122 µM); in the data set on Staphylococcus aureus [10] it was 100 µg/mL (≈ 244 µM). The “inhibition zone (IZ)” value with Bacillus subtilis [2] came out at 14 mm; with Escherichia coli [6] it was 14 mm; in the data set on Pseudomonas putida [8], 13 mm; in the data set on Staphylococcus aureus [12], 12 mm. In addition, in [3], the solubility result is “Insoluble”.
Consider `COc1ccc2[nH]cc(-c3nc(C(=O)Nc4cc(OC)c(OC)c(OC)c4)cs3)c2c1`, for which the pIC50 is less than 4.00 with MDA-MB-231 [15]; less than 4.00 in the data set on LNCaP [16]; less than 4.00 in the data set with PC-3 [17]; 4.07 in the data set on LNCaP [19]; 5.00 in the data set on HeLa [25]; less than 4.00 in the data set with MDA-MB-231 [26]. Besides, the pIC50 in the data set with PC-3 [20] is 4.03; in data set [21], less than 4.00; in the data set on HEK-293T [22], 5.06; in data set [23] it was less than 4.00; in the data set on HeLa [27], 4.53; in the data set with HEK-293T [24], 5.07. Also, the result in the data set with HeLa [18], in the data set on Escherichia coli [4], in the data set with Pseudomonas putida [9], in the data set with Pseudomonas putida [11] and with Escherichia coli [13] was Active. Also, the MIC stood at 12.5 µg/mL (≈ 28.4 µM) against Pseudomonas putida [1], 12.5 µg/mL (≈ 28.4 µM) with Escherichia coli [5], 50 µg/mL (≈ 114 µM) in the data set on Bacillus subtilis [7] and 100 µg/mL (≈ 228 µM) against Staphylococcus aureus [10]. The “inhibition zone (IZ)” value in the data set with Bacillus subtilis [2] was determined as 14 mm; in the data set with Escherichia coli [6], 18 mm; in the data set on Pseudomonas putida [8] it was 18 mm; in the data set on Staphylococcus aureus [12] it was 13 mm.
